Format in all cases: binding
The target of one assay is T1, BRPF1A (Homo sapiens, UniProt P55201).
T1 construct: purchased in-house (SGC bromodomain thermal shift / AlphaScreen panel)
T1 sequence (P55201 1-1220 isoform P55201-2): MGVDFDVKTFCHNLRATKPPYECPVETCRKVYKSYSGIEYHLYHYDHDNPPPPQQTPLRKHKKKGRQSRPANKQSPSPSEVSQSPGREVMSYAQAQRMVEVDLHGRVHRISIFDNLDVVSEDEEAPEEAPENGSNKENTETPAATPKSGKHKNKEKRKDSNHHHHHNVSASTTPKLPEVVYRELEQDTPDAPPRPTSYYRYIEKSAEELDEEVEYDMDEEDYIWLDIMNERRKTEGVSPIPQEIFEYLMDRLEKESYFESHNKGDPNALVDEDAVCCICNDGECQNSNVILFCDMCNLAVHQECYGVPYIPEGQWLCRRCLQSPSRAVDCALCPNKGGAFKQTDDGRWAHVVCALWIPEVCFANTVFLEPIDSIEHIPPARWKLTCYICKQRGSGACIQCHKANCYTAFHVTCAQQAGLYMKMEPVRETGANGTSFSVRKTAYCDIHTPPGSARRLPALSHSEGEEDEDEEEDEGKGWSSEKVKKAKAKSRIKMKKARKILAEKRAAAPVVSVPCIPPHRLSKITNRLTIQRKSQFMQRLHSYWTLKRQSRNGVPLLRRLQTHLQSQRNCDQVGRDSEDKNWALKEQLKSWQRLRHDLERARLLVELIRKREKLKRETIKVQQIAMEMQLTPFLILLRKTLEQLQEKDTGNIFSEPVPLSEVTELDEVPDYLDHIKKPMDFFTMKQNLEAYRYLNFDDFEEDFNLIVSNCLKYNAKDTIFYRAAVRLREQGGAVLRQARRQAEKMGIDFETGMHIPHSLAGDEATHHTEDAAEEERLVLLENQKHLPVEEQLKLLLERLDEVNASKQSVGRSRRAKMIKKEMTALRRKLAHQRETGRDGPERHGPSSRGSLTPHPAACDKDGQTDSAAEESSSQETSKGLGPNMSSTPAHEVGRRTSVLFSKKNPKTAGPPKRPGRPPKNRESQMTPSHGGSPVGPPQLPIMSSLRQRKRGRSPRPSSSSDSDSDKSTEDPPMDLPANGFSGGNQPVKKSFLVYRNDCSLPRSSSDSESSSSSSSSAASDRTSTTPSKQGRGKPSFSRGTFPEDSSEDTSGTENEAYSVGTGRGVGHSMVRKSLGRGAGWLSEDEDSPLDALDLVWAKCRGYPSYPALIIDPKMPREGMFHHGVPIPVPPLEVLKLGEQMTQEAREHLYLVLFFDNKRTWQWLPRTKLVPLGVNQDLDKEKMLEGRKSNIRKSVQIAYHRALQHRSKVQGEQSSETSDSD
Kind of assay: Thermal shift assay, BRPF1A. How it is done: (§1) II.VII Thermal Shift Assay[6]
(§2) Thermal melting experiments were carried out using an Mx3005p Real Time PCR machine (Stratagene). Proteins were buffered in 10 mM HEPES pH 7.5, 500 mM NaCl and assayed in a 96-well plate at a final concentration of 2 μM in 20 μL volume. Compounds were added at a final concentration of 50 μM. SYPRO Orange (Molecular Probes) was added as a fluorescence probe at a dilution of 1:1000. Excitation and emission filters for the SYPRO-Orange dye were set to 465 nm and 590 nm, respectively. The temperature was raised with a step of 3 °C per minute from 25 °C to 96 °C and fluorescence readings were taken at each interval. The unfolding curves were fitted using the Boltzmann equation to determine the middle point of the transition.

Another assay addresses T2, PB1(3) (Homo sapiens, UniProt Q86U86).
T2 construct: PB1(3); purchased in-house (SGC bromodomain thermal shift / AlphaScreen panel)
The assay can be described thus: Thermal shift assay, PB1(3). The method, then: as §1, §2

Another assay deals with T3, BRD3(2) (Homo sapiens, UniProt Q15059).
T3 construct: BRD3(2); purchased in-house (SGC bromodomain thermal shift / AlphaScreen panel)
T3 sequence (Q15059 306-416 limits assumed): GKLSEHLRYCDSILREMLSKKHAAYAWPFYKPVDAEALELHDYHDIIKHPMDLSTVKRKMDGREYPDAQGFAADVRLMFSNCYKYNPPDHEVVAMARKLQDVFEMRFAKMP
Kind of assay: Thermal shift assay, BRD3(2). How it is done:
as §1, §2

This note sets out measurements from article PMC6348381, “Discovery of an MLLT1/3 YEATS Domain Chemical Probe” (Angewandte Chemie (International Ed. in English), 2018).

Molecules are shown by their SMILES.

T2 sequence (Q86U86 388-494 limits assumed): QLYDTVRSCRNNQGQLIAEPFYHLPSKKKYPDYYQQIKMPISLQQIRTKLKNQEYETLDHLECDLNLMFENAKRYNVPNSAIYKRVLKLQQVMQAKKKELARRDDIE

With `CCOC(=O)Nc1cc(-c2ccc(C)c(NS(C)(=O)=O)c2)nn2c(C)nnc12` [Bromosporine, reference compound], the “Thermal stabilisation, BRPF1A” value on BRPF1A (10 µM compound concentration) is 0.145. Further, the “Thermal stabilisation, PB1(3)” value at PB1(3) (10 µM compound concentration) amounted to 0.24. Further, the “Thermal stabilisation, BRD3(2)” value at BRD3(2) (10 µM compound concentration) was found to be 6.56.

For `COC(=O)c1ccc(C(=O)Nc2ccc3[nH]c(CN4CCCCC4)nc3c2)cc1` [Compound 1], on BRPF1A (50 μM compound), the “Thermal stabilisation, BRPF1A” value is -1.045. For the same compound, the “Thermal stabilisation, PB1(3)” value on PB1(3) (50 μM compound) is on record as 1.5. The “Thermal stabilisation, BRD3(2)” value at BRD3(2) (50 μM compound) amounted to 0.675.

As for `C[C@H]1CCCN1Cc1nc2cc(NC(=O)c3ccc4c(cnn4C)c3)ccc2[nH]1` [Compound 92], the “Thermal stabilisation, BRPF1A” value on BRPF1A (50 μM compound) was -1.305. Besides, the “Thermal stabilisation, PB1(3)” value on PB1(3) (50 μM compound) was found to be 1.09. Moreover, the “Thermal stabilisation, BRD3(2)” value on BRD3(2) (50 μM compound) is recorded as -0.1.
